Data reported in ChEMBL document CHEMBL1149550, “5(Z)-benzylidene-1,2-dihydro-9-hydroxy-10-methoxy-2,2,4-trimethyl-5H-1-aza-6-oxa-chrysenes as non-steroidal glucocorticoid receptor modulators” (Bioorg Med Chem Lett, 2007).

Key:
Glucocorticoid receptor [1] = target: T1, Glucocorticoid receptor (Homo sapiens, UniProt P04150)
T1 sequence (P04150 whole entry): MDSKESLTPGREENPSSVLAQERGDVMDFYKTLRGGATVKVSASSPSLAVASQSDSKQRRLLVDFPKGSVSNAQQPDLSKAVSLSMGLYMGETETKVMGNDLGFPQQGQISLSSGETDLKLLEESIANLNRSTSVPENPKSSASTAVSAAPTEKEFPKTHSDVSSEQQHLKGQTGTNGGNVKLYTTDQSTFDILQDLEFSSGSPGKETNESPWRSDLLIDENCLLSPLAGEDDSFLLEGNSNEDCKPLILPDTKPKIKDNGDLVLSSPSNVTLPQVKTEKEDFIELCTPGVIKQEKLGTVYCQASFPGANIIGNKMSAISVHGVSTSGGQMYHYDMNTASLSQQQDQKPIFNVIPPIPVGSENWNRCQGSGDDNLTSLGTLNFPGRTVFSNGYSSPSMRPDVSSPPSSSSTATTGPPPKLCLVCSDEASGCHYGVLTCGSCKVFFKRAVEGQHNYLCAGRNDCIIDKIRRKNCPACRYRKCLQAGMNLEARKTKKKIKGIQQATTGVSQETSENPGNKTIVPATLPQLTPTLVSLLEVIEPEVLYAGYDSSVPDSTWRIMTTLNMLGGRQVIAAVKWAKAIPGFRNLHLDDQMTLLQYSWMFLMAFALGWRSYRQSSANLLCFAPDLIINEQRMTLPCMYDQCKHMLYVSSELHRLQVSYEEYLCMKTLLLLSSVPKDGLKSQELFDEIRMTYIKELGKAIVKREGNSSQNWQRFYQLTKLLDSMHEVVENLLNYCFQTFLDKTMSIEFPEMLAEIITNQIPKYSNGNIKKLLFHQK
Description: Displacement of radiolabeled Dexamethasone from glucocorticoid receptor

Glucocorticoid receptor [2] = target: T1, Glucocorticoid receptor; assay type: functional
Description: Activity at GR assessed as repression of TNFalpha and IL 1-beta induced E-selectin response

Glucocorticoid receptor [3] = target: T1, Glucocorticoid receptor; assay type: functional; remark: listed apart in the source
Description: Antagonist activity at GR assessed as inhibition of dexamethasone-induced GRE activation

Glucocorticoid receptor [4] = target: T1, Glucocorticoid receptor; assay type: functional; remark: listed apart in the source
Description: Agonist activity at GR by GRE activation assay

Androgen receptor = target: T2, Androgen receptor (Homo sapiens, UniProt P10275); assay: Binding affinity at AR
T2 sequence (P10275 whole entry): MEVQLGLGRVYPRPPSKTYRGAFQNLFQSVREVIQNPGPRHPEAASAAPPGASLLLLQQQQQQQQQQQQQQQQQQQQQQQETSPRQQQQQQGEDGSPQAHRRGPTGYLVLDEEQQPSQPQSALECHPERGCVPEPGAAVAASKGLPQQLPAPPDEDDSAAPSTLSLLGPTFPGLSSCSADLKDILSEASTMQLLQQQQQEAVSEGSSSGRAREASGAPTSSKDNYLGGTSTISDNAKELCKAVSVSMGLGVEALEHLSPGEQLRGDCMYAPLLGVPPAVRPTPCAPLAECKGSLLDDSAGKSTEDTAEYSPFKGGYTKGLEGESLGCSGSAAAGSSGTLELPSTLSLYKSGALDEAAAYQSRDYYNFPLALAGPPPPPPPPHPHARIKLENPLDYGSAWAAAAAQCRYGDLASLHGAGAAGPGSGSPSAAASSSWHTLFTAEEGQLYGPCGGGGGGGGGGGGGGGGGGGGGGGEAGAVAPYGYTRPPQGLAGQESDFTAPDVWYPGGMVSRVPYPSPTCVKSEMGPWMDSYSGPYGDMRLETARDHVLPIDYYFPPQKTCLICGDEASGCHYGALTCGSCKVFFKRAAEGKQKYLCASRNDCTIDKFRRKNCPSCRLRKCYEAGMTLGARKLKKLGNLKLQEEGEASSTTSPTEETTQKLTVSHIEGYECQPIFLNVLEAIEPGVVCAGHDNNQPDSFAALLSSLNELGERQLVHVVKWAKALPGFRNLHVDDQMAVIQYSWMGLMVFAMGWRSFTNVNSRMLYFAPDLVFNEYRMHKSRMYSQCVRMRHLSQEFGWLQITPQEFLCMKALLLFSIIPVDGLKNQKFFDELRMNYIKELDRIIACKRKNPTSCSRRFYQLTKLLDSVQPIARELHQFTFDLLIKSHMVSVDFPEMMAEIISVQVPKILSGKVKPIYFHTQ

Progesterone receptor = target: T3, Progesterone receptor (Homo sapiens, UniProt P06401); assay: Binding affinity at PR
T3 sequence (P06401 whole entry): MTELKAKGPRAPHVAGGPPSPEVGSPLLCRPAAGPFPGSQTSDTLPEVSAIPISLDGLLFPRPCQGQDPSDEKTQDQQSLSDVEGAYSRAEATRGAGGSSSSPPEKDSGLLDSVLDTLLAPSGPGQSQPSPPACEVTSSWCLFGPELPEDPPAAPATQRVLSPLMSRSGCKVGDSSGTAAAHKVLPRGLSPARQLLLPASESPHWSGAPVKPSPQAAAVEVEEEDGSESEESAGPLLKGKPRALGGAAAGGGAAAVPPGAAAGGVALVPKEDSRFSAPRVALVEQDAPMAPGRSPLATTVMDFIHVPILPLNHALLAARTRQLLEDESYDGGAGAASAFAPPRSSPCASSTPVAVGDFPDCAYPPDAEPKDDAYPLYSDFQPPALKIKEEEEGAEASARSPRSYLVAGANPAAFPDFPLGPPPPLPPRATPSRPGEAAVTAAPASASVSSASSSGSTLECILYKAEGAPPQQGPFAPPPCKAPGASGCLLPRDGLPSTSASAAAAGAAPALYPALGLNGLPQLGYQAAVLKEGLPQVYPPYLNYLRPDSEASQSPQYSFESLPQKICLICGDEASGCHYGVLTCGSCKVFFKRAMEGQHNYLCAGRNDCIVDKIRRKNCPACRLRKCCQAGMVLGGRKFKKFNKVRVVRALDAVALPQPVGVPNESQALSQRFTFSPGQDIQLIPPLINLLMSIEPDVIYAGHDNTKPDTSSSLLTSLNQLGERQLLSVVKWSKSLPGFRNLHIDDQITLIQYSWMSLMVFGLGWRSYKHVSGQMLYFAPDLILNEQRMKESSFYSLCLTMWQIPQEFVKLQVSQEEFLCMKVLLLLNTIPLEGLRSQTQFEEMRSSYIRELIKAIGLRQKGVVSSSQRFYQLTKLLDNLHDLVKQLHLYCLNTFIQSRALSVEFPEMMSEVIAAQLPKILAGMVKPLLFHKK

Glucocorticoid receptor [5] = target: T1, Glucocorticoid receptor; remark: listed apart in the source
Description: Agonist activity at GR by GRE activation assay relative to Dexamethasone

Compound | Ki (Glucocorticoid receptor [1]) | IC50 (Glucocorticoid receptor [2]) | IC50 (Glucocorticoid receptor [3]) | EC50 (Glucocorticoid receptor [4]) | EC50 (Glucocorticoid receptor [3]) | Ki (Androgen receptor) | Ki (Progesterone receptor) | EC50 (Glucocorticoid receptor [5])
COc1c(O)ccc2c1-c1ccc3c(c1/C(=C/c1ccccc1-c1ccccc1)O2)C(C)=CC(C)(C)N3 | 6.7 nM | 4.4 nM | 3.6 nM | 4.5 nM |  |  |  | 
COc1c(O)ccc2c1-c1ccc3c(c1/C(=C/c1ccc(F)cc1S(=O)(=O)N1CCCCC1)O2)C(C)=CC(C)(C)N3 | 94 nM | 22 nM | 6.6 nM | 108 nM |  |  |  | 
CCc1ccc(/C=C2\Oc3ccc(O)c(OC)c3-c3ccc4c(c32)C(C)=CC(C)(C)N4)cc1 |  |  |  | 207 nM | > 1000 nM |  |  | 
COc1c(O)ccc2c1-c1ccc3c(c1/C(=C/c1ccc(O)cc1)O2)C(C)=CC(C)(C)N3 | 1.1 nM | 1 nM | 0.4 nM | 1.1 nM |  |  |  | 
COc1c(O)ccc2c1-c1ccc3c(c1/C(=C/c1ccc(C(C)C)cc1)O2)C(C)=CC(C)(C)N3 | 2.9 nM |  |  | 455 nM | > 1000 nM |  |  | 
COc1c(O)ccc2c1-c1ccc3c(c1/C(=C/c1cccc(-c4cccnc4)c1)O2)C(C)=CC(C)(C)N3 | 1.5 nM | 3.6 nM | 0.7 nM | > 1000 nM |  |  |  | > 1000 nM
COc1c(O)ccc2c1-c1ccc3c(c1/C(=C/c1cccc(-c4ccsc4)c1)O2)C(C)=CC(C)(C)N3 | 3.1 nM | 1.4 nM | 0.5 nM | > 1000 nM |  |  |  | > 1000 nM
COc1c(O)ccc2c1-c1ccc3c(c1/C(=C/c1cccc(Oc4ccccc4)c1)O2)C(C)=CC(C)(C)N3 | 4.6 nM | 74 nM | 1.9 nM | > 1000 nM |  |  |  | > 1000 nM
COc1c(O)ccc2c1-c1ccc3c(c1/C(=C/c1ccc(-c4ccccc4)cc1)O2)C(C)=CC(C)(C)N3 | 4.4 nM | 77 nM |  | 33 nM | > 1000 nM |  |  | 
COc1ccc(/C=C2\Oc3ccc(O)c(OC)c3-c3ccc4c(c32)C(C)=CC(C)(C)N4)cc1 | 2.7 nM | 10 nM |  | 133 nM | > 1000 nM |  |  | 
COc1c(O)ccc2c1-c1ccc3c(c1/C(=C/c1cccc(-c4ccccc4)c1)O2)C(C)=CC(C)(C)N3 | 7.2 nM | 12 nM | 2.3 nM | > 1000 nM |  |  |  | > 1000 nM

Now from value to compound:

Ki (Glucocorticoid receptor [1]) | IC50 (Glucocorticoid receptor [2]) | IC50 (Glucocorticoid receptor [3]) | EC50 (Glucocorticoid receptor [4]) | EC50 (Glucocorticoid receptor [3]) | Ki (Androgen receptor) | Ki (Progesterone receptor) | EC50 (Glucocorticoid receptor [5]) | Compound
1.7 nM | 12 nM | > 1000 nM | 43 nM |  |  |  |  | COc1c(O)ccc2c1-c1ccc3c(c1/C(=C/c1ccc(Cl)cc1)O2)C(C)=CC(C)(C)N3
2.6 nM | 15 nM | 2.6 nM |  |  |  |  |  | COc1c(O)ccc2c1-c1ccc3c(c1/C(=C/c1cccc(C(F)(F)F)c1C)O2)C(C)=CC(C)(C)N3
 |  |  |  |  | 570 nM | 400 nM |  | COc1c(O)ccc2c1-c1ccc3c(c1/C(=C/c1cccc(C)c1)O2)C(C)=CC(C)(C)N3
1.7 nM | 1 nM | 0.4 nM | 3.4 nM |  |  |  |  | COc1c(O)ccc2c1-c1ccc3c(c1/C(=C/c1ccccc1C)O2)C(C)=CC(C)(C)N3
2.7 nM | 4.1 nM | 2.5 nM | > 1000 nM |  |  |  | > 1000 nM | COc1c(O)ccc2c1-c1ccc3c(c1/C(=C/c1cccc(C(F)(F)F)c1)O2)C(C)=CC(C)(C)N3
0.8 nM | 1.4 nM | 1.3 nM | 0.6 nM |  |  |  |  | COc1c(O)ccc2c1-c1ccc3c(c1/C(=C/c1ccccc1F)O2)C(C)=CC(C)(C)N3
15 nM | 18 nM | 24 nM | 18 nM |  |  |  |  | COc1c(O)ccc2c1-c1ccc3c(c1/C(=C/c1ccccc1Cl)O2)C(C)=CC(C)(C)N3
4.1 nM | 4.7 nM | 1.9 nM | > 1000 nM |  |  |  | > 1000 nM | COc1c(O)ccc2c1-c1ccc3c(c1/C(=C/c1cccc(OC(F)(F)F)c1)O2)C(C)=CC(C)(C)N3
1.6 nM | 4.9 nM | 1.1 nM | 0.7 nM |  |  |  |  | COc1c(O)ccc2c1-c1ccc3c(c1/C(=C/c1cccc(C)n1)O2)C(C)=CC(C)(C)N3
1.9 nM | 15 nM | 12 nM | 38 nM |  |  |  |  | COc1c(O)ccc2c1-c1ccc3c(c1/C(=C/c1ccc(C)cc1)O2)C(C)=CC(C)(C)N3
4.3 nM | 91 nM |  | > 1000 nM | > 1000 nM |  |  |  | COc1c(O)ccc2c1-c1ccc3c(c1/C(=C/c1ccc(OC(F)(F)F)cc1)O2)C(C)=CC(C)(C)N3
